Results: paper PMC4055595, “Pharmacokinetic Compatibility of Ginsenosides and Schisandra Lignans in Shengmai-san: From the Perspective of P-Glycoprotein” (PLoS ONE, 2014)
Like-named read-outs stand apart in the source and are kept apart here.

Legend:
[1] = test system: LLC-PK1 cells (lacking P-gp); experiment: Uptake (intracellular accumulation) of digoxin and ginsenosides in LLC-PK1 cells; type: in vitro ADME; conditions: for Effect of verapamil on intracellular accumulation: 10 µM verapamil; for Effect of SLE on intracellular accumulation: SLE 2.0 and 10.0 µg/mL
Method: (§1) LLC-PK1 cells, a cell line lacking P-gp, and the derived cell line L-MDR1, which over-express human MDR1-encoded P-gp, were grown in minimum essential medium with supplements at 37°C, 5% CO2, and 95% humidity. LLC-PK1 and L-MDR1 cells were seeded at a density of 12×10^6 cells per 150-cm^2 flask and grown for 7 days in medium 199 supplemented with 2 mM glutamine, 10% fetal bovine serum, 10 mg/500 mL of streptomycin, and 10,000 IU/500 mL of penicillin. To ensure a constant expression level of transport protein, L-MDR1 cells were grown in the presence of 640 nM vincristine. Cells were grown as monolayer on polycarbonate membrane filters (Transwell; Costar Corporation, Cambridge, MA) as outlined previously. Transepithelial resistance was measured in each well using a Millicell ERS ohmmeter (Millipore, Bedford, MA); wells registering a resistance of 200 ohms or greater, after correcting for the resistance obtained in control blank wells, were used in the transport experiments.
(§2) LLC-PK1 and L-MDR1 cells were incubated with SLE (2.0 and 10.0 µg/mL) or verapamil (10 µM) for 1.0 h, and then were washed to discard SLE or verapamil before adding 100 µg/mL of GE. The accumulation of GE lasted for 2 h, and the intracellular concentrations of ginsenosides were measured by LC/MS. All experiments were conducted in triplicate.

[2] = test system: LLC-PK1 cells (lacking P-gp); experiment: Transport of digoxin and ginsenosides across LLC-PK1 cell monolayers; type: in vitro ADME; conditions: for Effect of verapamil on transport (efflux ratio): 10 µM verapamil; for Effect of SLE on transport (AP→BL, BL→AP): SLE 2.0 and 10.0 µg/mL
Method: as §1
(§3) The LLC-PK1 and L-MDR1 cells were washed with warm Hank's balanced salt solution HBSS (pH 7.4) twice before transport experiment. HBSS containing verapamil (10 µM), SLE (2.0 and 10.0 µg/mL) or blank HBSS (control) was then loaded into both apical and basolateral chambers. After incubation at 37°C for 1.5 h, GE (100 µg/mL) was added to either the apical or basolateral side to evaluate the transport in absorptive and secretive directions, respectively. The cell monolayer was then incubated for another 2 h. Finally, the concentrations of ginsenosides were determined by LC/MS. All experiments were conducted in triplicate.
(§4) For the transport assay, the apparent permeability (P app, cm/s) in each direction (A→B and B→A) was calculated as follows, where A is the surface area of the membrane inserts (0.0804 cm^2), C 0 is the initial concentration of the compound applied in the donor compartment (2 µM), and △Q is the amount (micromoles) of compound transported over time △t (5 h = 18,000 s): [drawing 1]
(§5) The efflux ratio (ER) was a dimensionless number calculated as the ratio of the apparent permeability in the B→A direction divided by the apparent permeability in the A→B direction. [drawing 2]

[3] = molecular target: T1, human MDR1-encoded P-gp (L-MDR1 cells) (Homo sapiens, UniProt P08183); experiment: Transport of digoxin and ginsenosides across L-MDR1 cell monolayers (efflux ratio); type: in vitro ADME; conditions: for Effect of verapamil on efflux ratio / Papp / Effect of SLE on efflux ratio / transport: L-MDR1 cells; for Effect of verapamil on efflux ratio / Papp: 10 µM verapamil; for Effect of SLE on efflux ratio / transport: SLE 2.0 and 10.0 µg/mL; for P-gp substrate classification: summary of transport/uptake in LLC-PK1, L-MDR1 and Caco-2 cells with verapamil
Method: as §1, §3, §4, §5

P-gp (MDR1) = P-gp (MDR1) (Homo sapiens, UniProt P08183); experiment: as above; type: in vitro ADME; conditions: human, read-out: Efflux ratio (Papp BL-AP / Papp AP-BL)
Method: as §1, §3, §4, §5

[4] = Transport of digoxin and ginsenosides across Caco-2 cell monolayer (efflux ratio); type: in vitro ADME, human; conditions: human, Caco-2, pH 7.4
Method: (§6) Caco-2 cells were purchased from American Type Culture Collection (Manassas, VA), and were routinely cultured in Dulbecco's modified Eagle's medium supplemented with 10% fetal bovine serum, 1% nonessential amino acids, 1 mM sodium pyruvate, and 100 U/mL penicillin and streptomycin (Invitrogen, Carlsbad, CA). The cells were grown in an atmosphere of 5% CO2 at 37°C, and cell medium was changed every other day. Cells were seeded at a density of 4×10^4 cells per well in 24-well microporous polycarbonate insert filter plates (0.4-µm pore size) (Corning Costar plates; Corning Life Sciences, Lowell, MA) and grown for 15 days in Caco-2 growth medium. The medium was replaced every 3 to 4 days. Before running the assay, the culture medium was replaced by HBSS buffer supplemented with 10 mM Hepes and 20 mM glucose.
(§7) Caco-2 cells with a density of 1.2×10^5 cells/insert were seeded on a permeable polycarbonate insert (Millicell cell culture inserts, 0.4 µm pore size, 12 mm diameter; Millipore Corporation) in 24-well tissue culture plates and were used for the experiment 18 to 21 days after seeding. [^14C]Mannitol permeability and transepithelial electrical resistance measurements (Millicell-ERS epithelial volt-ohm meter; Millipore Corporation) were used to evaluate the integrity of Caco-2 cell monolayer. The monolayer used in transport studies had transepithelial electrical resistance values exceeding 600 Ω·cm^2, and the leakage of mannitol was less than 0.3% of the dose/h. Before transport initiation studies, the cell monolayer was first washed with warm HBSS (pH 7.4) twice. HBSS containing SLE (2.0 and 10.0 µg/mL) or 1% ethanol (control) was then loaded into both apical and basolateral chambers. After incubation at 37°C for 1.5 h, 100 µg/mL of GE was added to either the apical or basolateral side to evaluate the transport in absorptive and secretory directions, and the cell monolayer was incubated for another 2 h. 10 µM verapamil was used as a positive control inhibitor. At the designated time point, samples were taken from the receiving chamber for analysis. Ginsenosides were determined by LC-MS. All experiments were conducted in triplicate.
as §4, §5

[5] = molecular target: T1, human MDR1-encoded P-gp (L-MDR1 cells); experiment: Uptake (intracellular concentration) of digoxin and ginsenosides in L-MDR1 cells; type: in vitro ADME
Method: as §1, §2

Caco-2 cell monolayer = experiment: Transport of digoxin and ginsenosides across Caco-2 cell monolayer (efflux ratio); type: in vitro ADME, human
Method: as §6, §7, §4, §5

Caco-2 cells = experiment: Uptake of digoxin and ginsenosides in Caco-2 cells; type: in vitro ADME, human
Method: as §6
as §2, with “Caco-2” for “LLC-PK1 and L-MDR1”, “h. Then the cells” for “h, and then”, “washed with Hank's” for “washed”, “the addition” for “adding 100 µg/mL”, “GE (100 µg/mL).” for “GE.”, “ginsenosides” for “GE”

[6] = LLC-PK1, pH 7.4, L-MDR1 cells, control (absence of verapamil), GE 100 µg/mL, 2 h
[7] = LLC-PK1, pH 7.4, with verapamil 10 µM, L-MDR1 cells, presence of 10 µM verapamil
[8] = LLC-PK1, pH 7.4, L-MDR1 cells, presence of 10 µM verapamil

P-gp (MDR1), sequence (P08183 whole entry): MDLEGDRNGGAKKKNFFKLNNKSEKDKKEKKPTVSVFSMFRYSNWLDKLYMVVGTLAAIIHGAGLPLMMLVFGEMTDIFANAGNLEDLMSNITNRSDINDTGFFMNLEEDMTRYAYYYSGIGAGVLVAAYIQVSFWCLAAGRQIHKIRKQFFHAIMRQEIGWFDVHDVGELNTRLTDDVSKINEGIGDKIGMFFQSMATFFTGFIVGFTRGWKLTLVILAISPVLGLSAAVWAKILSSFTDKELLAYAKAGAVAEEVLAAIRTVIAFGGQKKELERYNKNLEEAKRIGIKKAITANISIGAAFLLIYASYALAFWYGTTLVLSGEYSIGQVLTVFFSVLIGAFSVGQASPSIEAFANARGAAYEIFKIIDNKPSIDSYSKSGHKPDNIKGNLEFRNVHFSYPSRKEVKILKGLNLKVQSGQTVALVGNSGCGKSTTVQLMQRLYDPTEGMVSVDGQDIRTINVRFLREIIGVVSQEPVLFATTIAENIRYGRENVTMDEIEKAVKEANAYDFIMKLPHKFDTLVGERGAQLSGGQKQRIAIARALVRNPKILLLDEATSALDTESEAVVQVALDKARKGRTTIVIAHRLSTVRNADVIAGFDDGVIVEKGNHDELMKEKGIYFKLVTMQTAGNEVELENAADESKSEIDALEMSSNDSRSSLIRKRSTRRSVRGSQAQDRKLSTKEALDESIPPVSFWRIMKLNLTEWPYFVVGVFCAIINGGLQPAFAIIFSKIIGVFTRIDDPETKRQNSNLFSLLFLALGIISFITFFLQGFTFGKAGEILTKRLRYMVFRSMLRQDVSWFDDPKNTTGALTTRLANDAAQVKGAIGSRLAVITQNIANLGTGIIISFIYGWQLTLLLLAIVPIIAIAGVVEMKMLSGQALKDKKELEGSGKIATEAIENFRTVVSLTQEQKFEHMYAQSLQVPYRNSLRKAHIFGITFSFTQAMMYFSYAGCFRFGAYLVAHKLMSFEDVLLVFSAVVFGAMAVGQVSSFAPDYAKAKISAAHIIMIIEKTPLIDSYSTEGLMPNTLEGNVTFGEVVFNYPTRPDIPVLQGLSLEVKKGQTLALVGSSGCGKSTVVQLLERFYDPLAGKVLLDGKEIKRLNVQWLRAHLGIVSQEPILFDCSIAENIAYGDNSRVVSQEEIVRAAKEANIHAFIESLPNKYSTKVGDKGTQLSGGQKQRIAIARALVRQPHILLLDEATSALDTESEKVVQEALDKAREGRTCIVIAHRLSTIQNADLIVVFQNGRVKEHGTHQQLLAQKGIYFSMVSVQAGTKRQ
T1 sequence (P08183 whole entry): as above

efflux ratio at 2 h, 100 µg/mL (P-gp (MDR1); [7]) | Compound | Effect of verapamil on intracellular accumulation [1] | Effect of verapamil on transport (efflux ratio) [2] | Effect of verapamil on efflux ratio / Papp [3] | Effect of SLE on efflux ratio / transport [3] | P-gp substrate classification [3] | efflux ratio at 2 h, 100 µg/mL (P-gp (MDR1); [6]) | Effect of SLE on intracellular accumulation [1] | Effect of SLE on transport (AP→BL, BL→AP) [2] | efflux ratio at 2 h (P-gp (MDR1); [8]) | efflux ratio at 2 h, 100 µg/mL [4] | Increase of intracellular concentration by SLE ([5]; 2.0 µg/mL SLE) | Increase of intracellular concentration by SLE ([5]; 10.0 µg/mL SLE) | Effect of verapamil on efflux ratio (Caco-2 cell monolayer; Caco-2 cells, 10 µM verapamil) | Effect of SLE on BL-AP transport / efflux ratio (Caco-2 cell monolayer; Caco-2 monolayer, SLE 2.0 and 10.0 µg/mL) | Effect of verapamil on uptake (Caco-2 cells; 10 µM verapamil) | Effect of SLE on intracellular concentration (Caco-2 cells; SLE 2.0 and 10.0 µg/mL, P<0.01)
2.36 | CC(C)=CCC[C@](C)(O[C@@H]1O[C@H](CO)[C@@H](O)[C@H](O)[C@H]1O)[C@H]1CC[C@]2(C)[C@@H]1[C@H](O)C[C@@H]1[C@@]3(C)CC[C@H](O)C(C)(C)[C@@H]3[C@@H](O[C@@H]3O[C@H](CO)[C@@H](O)[C@H](O)[C@H]3O[C@@H]3O[C@@H](C)[C@H](O)[C@@H](O)[C@H]3O)C[C@]12C [Re, ginsenoside Re] | almost not affected by verapamil | No transport difference | almost not affected by verapamil | almost not be affected by SLE | almost could not be transported by P-gp | < 2 |  |  |  |  |  |  |  |  |  | 
1.16 | CC(C)=CCC[C@](C)(O[C@@H]1O[C@H](CO)[C@@H](O)[C@H](O)[C@H]1O)[C@H]1CC[C@]2(C)[C@@H]1[C@H](O)C[C@@H]1[C@@]3(C)CC[C@H](O)C(C)(C)[C@@H]3[C@@H](O[C@@H]3O[C@H](CO)[C@@H](O)[C@H](O)[C@H]3O)C[C@]12C [Rg1, ginsenoside Rg1] | almost not affected by verapamil | No transport difference | almost not affected by verapamil | almost not be affected by SLE | almost could not be transported by P-gp | < 2 |  |  |  |  |  |  |  |  |  | 
 | CC(C)=CCC[C@](C)(O)[C@H]1CC[C@]2(C)[C@@H]1[C@H](O)C[C@@H]1[C@@]3(C)CC[C@H](O)C(C)(C)[C@@H]3[C@@H](O[C@@H]3O[C@H](CO)[C@@H](O)[C@H](O)[C@H]3O[C@@H]3O[C@@H](C)[C@H](O)[C@@H](O)[C@H]3O)C[C@]12C [Rg2, ginsenoside Rg2] | no significant difference | No transport difference | significantly decrease of ER | significantly decreased | moderate P-gp substrates | > 3.5 | no significant difference | No transport difference | 1.52 | 4.26 | 1.7 fold | 2.1 fold |  |  |  | 
 | CC(C)=CCC[C@](C)(O)[C@H]1CC[C@]2(C)[C@@H]1[C@H](O)C[C@@H]1[C@@]3(C)CC[C@H](O[C@@H]4O[C@H](CO)[C@@H](O)[C@H](O)[C@H]4O[C@@H]4O[C@H](CO)[C@@H](O)[C@H](O)[C@H]4O)C(C)(C)[C@@H]3CC[C@]12C [Rg3, ginsenoside Rg3] | no significant difference | No transport difference | significantly decrease of ER | significantly decreased | moderate P-gp substrates |  | no significant difference | No transport difference |  |  | 2.5 fold | 2.9 fold | decreased significantly | concentration dependently decrease | significantly enhanced | concentration dependently increase
 | CC(C)=CCC[C@](C)(O)[C@H]1CC[C@]2(C)[C@@H]1[C@H](O)C[C@@H]1[C@@]3(C)CC[C@H](O)C(C)(C)[C@@H]3[C@@H](O[C@@H]3O[C@H](CO)[C@@H](O)[C@H](O)[C@H]3O)C[C@]12C [Rh1, ginsenoside Rh1] | almost not affected by verapamil | No transport difference | almost not affected by verapamil | almost not be affected by SLE | almost could not be transported by P-gp | < 2 |  |  | 1.6 |  |  |  |  |  |  | 

Compound | efflux ratio at 2 h, 100 µg/mL (P-gp (MDR1); [7]) | Effect of verapamil on intracellular accumulation [1] | Effect of verapamil on transport (efflux ratio) [2] | Effect of verapamil on efflux ratio / Papp [3] | Effect of SLE on efflux ratio / transport [3] | P-gp substrate classification [3] | efflux ratio at 2 h, 100 µg/mL (P-gp (MDR1); [6]) | Effect of SLE on intracellular accumulation [1] | Effect of SLE on transport (AP→BL, BL→AP) [2] | efflux ratio at 2 h (P-gp (MDR1); [8]) | efflux ratio at 2 h, 100 µg/mL [4] | Increase of intracellular concentration by SLE ([5]; 2.0 µg/mL SLE) | Increase of intracellular concentration by SLE ([5]; 10.0 µg/mL SLE) | Effect of verapamil on efflux ratio (Caco-2 cell monolayer; Caco-2 cells, 10 µM verapamil) | Effect of SLE on BL-AP transport / efflux ratio (Caco-2 cell monolayer; Caco-2 monolayer, SLE 2.0 and 10.0 µg/mL) | Effect of verapamil on uptake (Caco-2 cells; 10 µM verapamil) | Effect of SLE on intracellular concentration (Caco-2 cells; SLE 2.0 and 10.0 µg/mL, P<0.01)
CC(C)=CCC[C@](C)(O[C@@H]1O[C@H](CO)[C@@H](O)[C@H](O)[C@H]1O)[C@H]1CC[C@]2(C)[C@@H]1[C@H](O)C[C@@H]1[C@@]3(C)CC[C@H](O)C(C)(C)[C@@H]3[C@@H](O)C[C@]12C [F1, ginsenoside F1] | 1.99 | almost not affected by verapamil | No transport difference | almost not affected by verapamil | almost not be affected by SLE | almost could not be transported by P-gp | < 2 |  |  |  |  |  |  |  |  |  | 
